According to patent US20090155272A1, “Targeted pharmaceuticals and ligands” (priority 2005, published 2009):
Peptide text beside a SMILES is read from it. * marks the point of attachment. Decanoyl = CCCCCCCCCC(=O)*; CH2Cl = ClC*

Assays:
β-DG = assay: Metalloprotease-dependent shedding and cleavage of dystroglycan in cultured cells (immunoblot); type: cell-based; settings: incubation of the cells with inhibitor
Experimental: FIG. 6A-B depicts a modification of dystroglycan by metalloprotease activity. (A) Structure of α-DG and β-DG. α-DG associates non-covalently with β-DG, which spans the plasma membrane. O-linked glycosylation is shown as a chain of circles of varying length, whereas N-linked glycosylation is shown as branches. (B) Immunoblot analysis of α-DG and β-DG levels in cell lines cultured in the presence or absence of the MP inhibitor BB-2516. Cells were cultured in serum-free medium for two days with or without BB-2516 and then total cellular proteins were extracted and subjected to immunoblot analysis of α-DG and β-DG.
To confirm that metalloprotease activity is indeed blocked by the GM6001, the cleavage of known molecules is monitored. Using identically treated cell populations, proteins are extracted and analyzed by immunoblot. These controls include detecting the cleavage of the β-DG subunit, which is evidenced by a shift in the molecular mass of this protein from 43 kDa to 31 kDa in MDA-MB-231 cells using an antibody binding the β-DG cytoplasmic domain (see FIG. 6).
For example, metalloprotease cleavage events are responsible for the shedding of β-DG from the cell surface, and for direct cleavage of the extracellular domain of β-DG, which is detected by the reduction in the molecular mass of β-DG from 43 kD to 31 kD. Both the shedding of β-DG, and the cleavage of β-DG are blocked by the incubation of the cells with the broad-spectrum MMP inhibitors GM6001 or BB2516. Detection of the cleaved form of p-DG can be completely eliminated after just 24 hours exposure to the MMP inhibitor.

α-DG = assay: Immunoprecipitation of the DG complex after furin inhibitor treatment; type: cell-based; settings: EpH4, MDA-MB-231 and MDA-MB-468 cells
[1] = test system: BT474 and MDA-MB-231 cells; settings: 50 μM, extended periods of time; cited from earlier work
known metalloproteases = settings: 50 μM; cited from earlier work

Row | SMILES | cleavage of β-DG (43 kD to 31 kD) (β-DG) | shedding of β-DG from the cell surface (β-DG) | α-DG band position (α-DG) | cell viability on extended exposure [1] | block of activity of known metalloproteases (known metalloproteases)
1 | CNC(=O)[C@@H](NC(=O)[C@H](CC(C)C)[C@H](O)C(=O)NO)C(C)(C)C [BB2516] | blocked | blocked |  |  | 
2 | CCCCCCCCCC(=O)N[C@@H](CCCN=C(N)N)C(=O)N[C@H](C(=O)N[C@@H](CCCCN)C(=O)N[C@@H](CCCN=C(N)N)C(=O)CCl)C(C)C [CMK] (Decanoyl-RVKR-CH2Cl) |  |  | shifted upward in all cells |  | 
3 | CNC(=O)[C@H](Cc1c[nH]c2ccccc12)NC(=O)[C@@H](CC(=O)NO)CC(C)C [GM6001] | blocked | blocked |  | without loss of cell viability | more than sufficient to block the activity of known metalloproteases
